Data published in patent publication US11534457B2, “Use of dextran sulfate” (priority 2017, dated 2022).

Test system: severe traumatic brain injury (sTBI)
Assay: sTBI in rats, brain gene expression arrays and pathway analysis (Example 9)
Type: in vivo, Male Wistar rats
Set-up: key to z score, canonical pathway Dendritic Cell Maturation / z score, canonical pathway Adrenomedullin Signaling pathway / z score, canonical pathway Endothelin-1 Signaling / effect on canonical pathway Adrenomedullin Signaling pathway / effect on canonical pathway Endothelin-1 Signaling / effect on canonical pathway Dendritic Cell Maturation / Ingenuity canonical pathway Adrenomedullin signaling pathway, z score / Ingenuity canonical pathway FLT3 Signaling in Hematopoietic Progenitor Cells, z score / Ingenuity canonical pathway Opioid Signaling Pathway, z score / Ingenuity canonical pathway VDR/RXR Activation, z score / Ingenuity canonical pathway Neuropathic Pain Signaling In Dorsal Horn Neurons, z score / Ingenuity canonical pathway STAT3 Pathway, z score / Ingenuity canonical pathway IL-1 Signaling, z score / Ingenuity canonical pathway IL-6 Signaling, z score / Ingenuity canonical pathway NF-κB Signaling, z score / Ingenuity canonical pathway Role of NFAT in Cardiac Hypertrophy, z score / Ingenuity canonical pathway PPARα/RXRα Activation, z score: *: ambiguous effect
Conditions: for effect of TBI on molecular processes and diseases: given 30 minutes after injury; for TBI-induced alterations in neurodegeneration and scarring-related canonical pathways: given within 30 minutes of TBI
Method: The experimental protocol used in this study was approved by the Ethical Committee of the Catholic University of Rome, according to international standards and guidelines for animal care. Male Wistar rats of 300-350 g body weight were fed with standard laboratory diet and water ad libitum in a controlled environment. As the anesthetic mixture, the animals received 35 mg/kg b.w. ketamine and 0.25 mg/kg body weight midazolam by i.p. injection. Severe traumatic brain injury (sTBI) was induced by dropping a 450 g weight from 2 m height on to the rat head that had been protected by a metal disk previously fixed on the skull, according to the “weight drop” impact acceleration model (Marmarou et al., A new model of diffuse brain injury in rats. Part I: Pathophysiology and biomechanics. J Neurosurg. 1994; 80: 291-300). […] At the end of each period of treatment, rats were anesthetized again and then immediately sacrificed.
LMW-DS (Tikomed AB) was provided at a stock concentration of 20 mg/ml and was kept in a temperature-monitored refrigerator at 4° C. LMW-DS aliquots were diluted to the appropriate dosing concentration in sterile saline prior to delivery of a single subcutaneous injection.
Three doses of LMW-DS were administered subcutaneously 30 minutes post-TBI. The animals were sacrificed at 2 days post-TBI. The animals were divided into the following subgroups:
Three doses of LMW-DS were administered subcutaneously 30 minutes post-TBI. The animals were sacrificed at 7 days post-TBI. The animals were divided into the following subgroups:
An in vivo craniectomy was performed on all animals during anesthesia. After carefully removing the rat's skull, the brain was exposed and removed with a surgical spatula and quickly dropped in RNALater and preserved at 4° C. for further processing.
RNA extraction and array processing was carried out by SourceBioscience. The arrays used were the Agilent Rat expression arrays.
Statistical analysis was carried out using the Metaboanalyst software package. Gene expression changes of 10% with a p<0.05 were regarded as significant.
Pathway analysis of the differentially regulated genes was carried out using the Ingenuity pathway analysis package. The analysis was performed with special reference to pathways and molecular processes and diseases associated with neurodegenerative disease, including dementia, Alzheimer's disease, ALS, TBI and stroke, and with scarring and fibrosis, including glaucoma and normal pressure hydrocephalus (NPH) after subarachnoid haemorrhage.

[1] = TBI + 15 mg/kg repeat dose LMW-DS, after 7 days, TBI: Inhibited
[2] = TBI + 15 mg/kg repeated dose LMW-DS, 7 days after TBI
[3] = TBI + 15 mg/kg repeated dose LMW-DS, 7 days after TBI, relative to control

Q: Which results are given for “low molecular weight dextran sulfate [LMW-DS]”?
A: Diseases or functions annotation: Differentiation of bone cells [1]: Inhibited; Diseases or functions annotation: Differentiation of connective tissue cells [1]: Inhibited; Diseases or functions annotation: Digestive system cancer [1]: Inhibited; Diseases or functions annotation: Epithelial neoplasm [1]: Inhibited; Diseases or functions annotation: Formation of cellular protrusions [1]: Activated; Diseases or functions annotation: Formation of intercellular junctions [1]: Activated; Diseases or functions annotation: Learning [1]: Activated; Diseases or functions annotation: Microtubule dynamics [1]: Activated; Diseases or functions annotation: Migration of cells [1]: Activated; Diseases or functions annotation: Morphogenesis of neurons [1]: Activated; Diseases or functions annotation: Neurotransmission [1]: Activated; Diseases or functions annotation: Non-hematological solid tumor [1]: Inhibited; Diseases or functions annotation: Non-melanoma solid tumor [1]: Inhibited; Diseases or functions annotation: Nonhematologic malignant neoplasm [1]: Inhibited; Diseases or functions annotation: Organization of cytoplasm [1]: Activated; Diseases or functions annotation: Organization of cytoskeleton [1]: Activated; Diseases or functions annotation: Quantity of Ca^2+ [1]: Activated; Diseases or functions annotation: Quantity of carbohydrate [1]: Inhibited; Diseases or functions annotation: Quantity of cells [1]: Activated; Diseases or functions annotation: Size of body [1]: Activated; Diseases or functions annotation: Transport of ion [1]: Activated; Diseases or functions annotation: Transport of metal [1]: Activated; Diseases or functions annotation: Transport of molecule [1]: Activated; Diseases or functions annotation: Tumorigenesis of tissue [1]: Inhibited; Ingenuity canonical pathway: 3-phosphoinositide Degradation [2]: Activated; Ingenuity canonical pathway: Acute Phase Response Signaling [2]: Inhibited; Ingenuity canonical pathway: Adrenomedullin signaling pathway [2]: Inhibited; Ingenuity canonical pathway: B Cell Receptor Signaling [2]: Inhibited; Ingenuity canonical pathway: Ephrin Receptor Signaling [2]: Activated; Ingenuity canonical pathway: Fc Epsilon RI Signaling [2]: Inhibited; Ingenuity canonical pathway: G Beta Gamma Signaling [2]: Activated; Ingenuity canonical pathway: NF-κB Signaling [2]: Activated; Ingenuity canonical pathway: Opioid Signaling Pathway [2]: Activated; Ingenuity canonical pathway: Role of NFAT in Cardiac Hypertrophy [2]: Activated; Ingenuity canonical pathway: Role of NFAT in Regulation of the Immune Response [2]: Activated; Ingenuity canonical pathway: Signaling by Rho Family GTPases [2]: Activated; Ingenuity canonical pathway: Superpathway of Inositol Phosphate Compounds [2]: Activated; Ingenuity canonical pathway: Synaptic Long Term Depression [2]: Activated; z score: Abdominal cancer [2]: −2.015; z score: Abdominal neoplasm [2]: −1.116; z score: Adenocarcinoma [2]: −0.944; z score: Branching of cells [2]: 0.397; z score: Carcinoma [2]: −0.358; z score: Cell movement [2]: 0.154; z score: Cell-cell contact [2]: 1.504; z score: Concentration of hormone [2]: 0.825; z score: Concentration of lipid [2]: −0.204; z score: Dendritic growth/branching [2]: −0.169; z score: Development of connective tissue cells [2]: −0.005; z score: Development of gap junctions [2]: 0.849; z score: Development of neurons [2]: 0.688; z score: Developmental process of synapse [2]: 0.849; z score: Differentiation of bone cells [2]: −0.237; z score: Differentiation of connective tissue cells [2]: −0.011; z score: Digestive organ tumor [2]: −1.481; z score: Digestive system cancer [2]: −1.513; z score: Epithelial neoplasm [2]: −0.999; z score: Extracranial solid tumor [2]: 0.529; z score: Formation of cellular protrusions [2]: 1.183; z score: Formation of intercellular junctions [2]: 0.391; z score: Gastrointestinal tumor [2]: −1.284; z score: Hematologic cancer [2]: −2.216; z score: Hematopoietic neoplasm [2]: −2.027; z score: Learning [2]: 0.469; z score: Microtubule dynamics [2]: 1.962; z score: Migration of cells [2]: 0.271; z score: Morphogenesis of neurons [2]: 0.205; z score: Neurotransmission [2]: 1.214; z score: Non-hematologic malignant neoplasm [2]: −0.223; z score: Non-hematological solid tumor [2]: −0.913; z score: Non-melanoma solid tumor [2]: −1.478; z score: Obesity [2]: 2.18; z score: Organization of cytoplasm [2]: 1.922; z score: Organization of cytoskeleton [2]: 1.922; z score: Quantity of carbohydrate [2]: −0.017; z score: Quantity of cells [2]: 0.493; z score: Seizure disorder [2]: 1.376; z score: Size of body [2]: 0.67; z score: Skin lesion [2]: 0.532; z score: Transport of ion [2]: 1.109; z score: Transport of metal [2]: 1; z score: Transport of molecule [2]: 1.143; z score: Tumorigenesis of tissue [2]: −1.333; Ingenuity canonical pathway 3-phosphoinositide Degradation, z score [3]: 2; Ingenuity canonical pathway Acute Phase Response Signaling, z score [3]: −0.447; Ingenuity canonical pathway Adrenomedullin signaling pathway, z score [3]: −0.378; Ingenuity canonical pathway B Cell Receptor Signaling, z score [3]: −0.447; Ingenuity canonical pathway Ephrin Receptor Signaling, z score [3]: 2.236; Ingenuity canonical pathway FLT3 Signaling in Hematopoietic Progenitor Cells, z score [3]: *; Ingenuity canonical pathway Fc Epsilon RI Signaling, z score [3]: −1; Ingenuity canonical pathway G Beta Gamma Signaling, z score [3]: 2.236; Ingenuity canonical pathway IL-1 Signaling, z score [3]: *; Ingenuity canonical pathway IL-6 Signaling, z score [3]: *; Ingenuity canonical pathway NF-κB Signaling, z score [3]: 0.447; Ingenuity canonical pathway Neuropathic Pain Signaling In Dorsal Horn Neurons, z score [3]: *; Ingenuity canonical pathway Opioid Signaling Pathway, z score [3]: 0.816; Ingenuity canonical pathway Role of NFAT in Cardiac Hypertrophy, z score [3]: 0.447; Ingenuity canonical pathway Role of NFAT in Regulation of the Immune Response, z score [3]: 2.236; Ingenuity canonical pathway Signaling by Rho Family GTPases, z score [3]: 1; Ingenuity canonical pathway Superpathway of Inositol Phosphate Compounds, z score [3]: 2; Ingenuity canonical pathway Synaptic Long Term Depression, z score [3]: 1.342; effect of TBI on molecular processes and diseases (2 days): mostly abolished; effect of TBI on molecular processes and diseases (7 days): mostly abolished; TBI-induced alterations in neurodegeneration and scarring-related canonical pathways (2 days): counteracted; TBI-induced alterations in neurodegeneration and scarring-related canonical pathways (7 days): counteracted
